Laboratory results as given in patent publication US10087166B2, “Cyclic amine azaheterocyclic carboxamides” (Merck Patent GmbH, priority 2010, dated 2018).

Target: T1, P70S6K (Homo sapiens, UniProt P23443, T412E)
T1 construct: purchased Millipore
Assay: P70S6K enzyme assay
Type: biochemical
Settings: P70S6K T412E mutant 3 nM, 24 μM ATP, FITC-AHA-AKRRRLSSLRA-OH substrate, 90 min at 25° C.; read-out: IC50p70S6K
Protocol: P70S6K inhibitor compounds are diluted and plated in 96 well plates. A reaction mixture including the following components is then added to the compound plate to initiate the enzyme reaction; P70S6K (3 nM, T412E mutant, Millipore) is mixed with 24 μM ATP in an assay buffer containing 100 mM Hepes (pH 7.5), 5 mM MgCl2, 1 mM DTT, 0.015% Brij and 1 μM of the substrate peptide FITC-AHA-AKRRRLSSLRA-OH (derived from the S6 ribosomal protein sequence, FITC=fluorescein isothiocyanate, AHA=6-aminohexanoic acid). The reaction is incubated for 90 min at 25° C., before the addition of 10 mM EDTA to stop the reaction. The proportion of substrate and product (phosphorylated) peptide is analyzed on a Caliper Life Sciences Lab Chip 3000, using a pressure of −1.4 psi, and upstream and downstream voltages of −3000 and −700 respectively. Product peaks are resolved before substrate peaks on the resulting chromatograms.
To assess the inhibitory potential of the compounds, IC50-values were determined, as shown in Chemical Synthesis section above.

T1 sequence (P23443 whole entry T412E): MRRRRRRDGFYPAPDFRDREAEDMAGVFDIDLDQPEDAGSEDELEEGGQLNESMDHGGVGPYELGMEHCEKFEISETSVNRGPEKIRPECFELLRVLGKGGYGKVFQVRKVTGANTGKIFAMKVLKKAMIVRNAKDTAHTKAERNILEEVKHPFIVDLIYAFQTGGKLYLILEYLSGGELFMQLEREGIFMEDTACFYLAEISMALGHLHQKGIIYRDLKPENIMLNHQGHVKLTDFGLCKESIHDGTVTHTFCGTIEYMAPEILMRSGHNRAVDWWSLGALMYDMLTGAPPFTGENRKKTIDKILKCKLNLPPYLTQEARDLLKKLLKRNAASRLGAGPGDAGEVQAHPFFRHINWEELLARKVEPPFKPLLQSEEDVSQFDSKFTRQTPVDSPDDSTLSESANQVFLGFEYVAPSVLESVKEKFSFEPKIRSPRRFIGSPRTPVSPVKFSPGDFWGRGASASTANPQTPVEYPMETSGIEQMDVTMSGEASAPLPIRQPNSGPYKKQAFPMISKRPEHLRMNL

IC50 [nM]	Structure (SMILES)
3.6	CCc1nc(N[C@@H]2CNCC[C@H]2c2ccc(F)cc2)c2cccc(C(N)=O)c2n1 (racemic) [compound 133]
4.2	Cc1nc(N[C@@H]2CNCC[C@H]2c2ccc(F)cc2)c2cccc(C(N)=O)c2n1 (racemic) [compound 134]
4.3	COc1cccc([C@@H]2CCNC[C@H]2Nc2ncnc3c(C(N)=O)cccc23)c1 (racemic) [compound 135]
210	Cc1nc(N[C@@H]2CNCC[C@H]2c2ccccc2F)c2cccc(C(N)=O)c2n1 (racemic) [compound 136]
2.7	Cc1nc(N[C@@H]2CNCC[C@H]2c2cccc(C(F)(F)F)c2)c2cccc(C(N)=O)c2n1 (racemic) [compound 138, 2-methyl-4-(((3R,4R)-4-(3-(trifluoromethyl)phenyl)piperidin-3-yl)amino)quinazoline-8-]
18	COc1ccc([C@@H]2CCNC[C@H]2Nc2ncnc3c(C(N)=O)cccc23)cc1OC (racemic) [compound 139]
3.1	NC(=O)c1cccc2c(N[C@@H]3CNCC[C@H]3c3cc(F)cc(C(F)(F)F)c3)ncnc12 (racemic) [compound 140]
2.9	Cc1nc(N[C@@H]2CNCC[C@H]2c2ccc(C(F)(F)F)cc2)c2cccc(C(N)=O)c2n1 (racemic) [compound 141]
450	CCc1nc(N[C@@H]2CNCC[C@H]2c2ccccc2F)c2cccc(C(N)=O)c2n1 (racemic) [compound 142]
5	CCc1nc(N[C@@H]2CNCC[C@H]2c2cccc(C)c2)c2cccc(C(N)=O)c2n1 (racemic) [compound 144]
10	Cc1cc(C)cc(C2CCNCC2Nc2ncnc3c(C(N)=O)cccc23)c1 (racemic) [compound 145, 4-((4-(3,5-dimethylphenyl)piperidin-3-yl)amino)quinazoline-8-carboxamide]
7.1	NC(=O)c1cc(F)cc2c(N[C@@H]3CNCC[C@H]3c3ccccc3)ncnc12 (racemic) [compound 146, 6-fluoro-4-(((3R,4R)-4-phenylpiperidin-3-yl)amino)quinazoline-8-carboxamide]
22	NC(=O)c1cccc2c(N[C@@H]3CNC[C@H]3C(=O)Nc3ccccc3)ncnc12 (relative stereo) [compound 26, trans-4-(4-Phenylcarbamoyl-pyrrolidin-3-ylamino)-quinazoline-8-carboxylic acid amide]
3.5	NC(=O)c1cccc2c(NC3CNCC3c3ccccc3F)ncnc12 (stereo not drawn) [compound 4, 4-((4-(2-fluorophenyl)pyrrolidin-3-yl)amino)quinazoline-8-carboxamide]
2.6	NC(=O)c1cccc2c(NC3CNCC3c3ccc(F)cc3)ncnc12 (stereo not drawn) [compound 5, 4-((4-(4-fluorophenyl)pyrrolidin-3-yl)amino)quinazoline-8-carboxamide]
2	COc1ccc(C2CNCC2Nc2ncnc3c(C(N)=O)cccc23)cc1 (stereo not drawn) [compound 6, 4-((4-(4-methoxyphenyl)pyrrolidin-3-yl)amino)quinazoline-8-carboxamide]
2.6	COc1cccc(C2CNCC2Nc2ncnc3c(C(N)=O)cccc23)c1 (stereo not drawn) [compound 7, 4-((4-(3-methoxyphenyl)pyrrolidin-3-yl)amino)quinazoline-8-carboxamide]
18	COc1ccccc1C1CNCC1Nc1ncnc2c(C(N)=O)cccc12 (stereo not drawn) [compound 8, 4-((4-(2-methoxyphenyl)pyrrolidin-3-yl)amino)quinazoline-8-carboxamide]
2.4	Cc1nc(NC2CNCC2c2ccc(F)cc2)c2cccc(C(N)=O)c2n1 (stereo not drawn) [compound 17, 4-((4-(4-fluorophenyl)pyrrolidin-3-yl)amino)-2-methylquinazoline-8-carboxamide]
1.8	COc1ccc(C2CNCC2Nc2nc(C)nc3c(C(N)=O)cccc23)cc1 (stereo not drawn) [compound 18, 4-((4-(4-methoxyphenyl)pyrrolidin-3-yl)amino)-2-methylquinazoline-8-carboxamide]
13	NC(=O)c1cccc2c(NC3CNCC3c3cccc(F)c3)ccnc12 (stereo not drawn) [compound 21, 4-((4-(3-fluorophenyl)pyrrolidin-3-yl)amino)quinoline-8-carboxamide]

IC50 [nM]	Structure (SMILES)
9.4	NC(=O)c1cccc2c(NC3CNCC3c3ccccc3F)ccnc12 (stereo not drawn) [compound 22, 4-((4-(2-fluorophenyl)pyrrolidin-3-yl)amino)quinoline-8-carboxamide]
46	COc1ccccc1C1CNCC1Nc1ccnc2c(C(N)=O)cccc12 (stereo not drawn) [compound 23, 4-((4-(2-methoxyphenyl)pyrrolidin-3-yl)amino)quinoline-8-carboxamide]
2.6	NC(=O)c1cccc2c(N[C@@H]3CNC[C@H]3c3cc(F)cc(C(F)(F)F)c3)ncnc12 [compound 46, 4-(((3S,4R)-4-(3-fluoro-5-(trifluoromethyl)phenyl)pyrrolidin-3-yl)amino)quinazoline-8-carboxamide]
160	NC(=O)c1cccc2c(N[C@H]3CNC[C@@H]3c3cc(F)cc(C(F)(F)F)c3)ncnc12 [compound 47, 4-(((3R,4S)-4-(3-fluoro-5-(trifluoromethyl)phenyl)pyrrolidin-3-yl)amino)quinazoline-8-carboxamide]
60	NC(=O)c1cccc2c(N[C@@H]3CNC[C@H]3c3cccc(C(F)(F)F)c3)ncnc12 [compound 49, 4-(((3S,4R)-4-(3-(trifluoromethyl)phenyl)pyrrolidin-3-yl)amino)quinazoline-8-carboxamide]
3	NC(=O)c1cccc2c(N[C@H]3CNC[C@@H]3c3cccc(C(F)(F)F)c3)ncnc12 [compound 50, 4-(((3R,4S)-4-(3-(trifluoromethyl)phenyl)pyrrolidin-3-yl)amino)quinazoline-8-carboxamide]
66	NC(=O)c1cccc2c(N[C@H]3CNC[C@@H]3c3ccc(C(F)(F)F)cc3)ncnc12 [compound 53, 4-(((3R,4S)-4-(4-(trifluoromethyl)phenyl)pyrrolidin-3-yl)amino)quinazoline-8-carboxamide]
1.3	NC(=O)c1cccc2c(N[C@H]3CNC[C@H]3c3ccc(C(F)(F)F)cc3)ncnc12 [compound 54, 4-(((3R,4R)-4-(4-(trifluoromethyl)phenyl)pyrrolidin-3-yl)amino)quinazoline-8-carboxamide]
2.1	NC(=O)c1cccc2c(N[C@H]3CNC[C@@H]3c3cccc(OC(F)(F)F)c3)ncnc12 [compound 57]
0.98	NC(=O)c1cccc2c(N[C@H]3CNC[C@H]3c3cccc(OC(F)(F)F)c3)ncnc12 [compound 58, 4-(((3R,4R)-4-(3-(trifluoromethoxy)phenyl)pyrrolidin-3-yl)amino)quinazoline-8-carboxamide]
120	NC(=O)c1cccc2c(N[C@H]3CNC[C@@H]3c3ccc(OC(F)(F)F)cc3)ncnc12 [compound 60, 4-(((3R,4S)-4-(4-(trifluoromethoxy)phenyl)pyrrolidin-3-yl)amino)quinazoline-8-carboxamide]
1.5	NC(=O)c1cccc2c(N[C@@H]3CNC[C@H]3c3ccc(OC(F)(F)F)cc3)ncnc12 [compound 61, 4-(((3S,4R)-4-(4-(trifluoromethoxy)phenyl)pyrrolidin-3-yl)amino)quinazoline-8-carboxamide]
1.5	COc1ccc([C@@H]2CNC[C@H]2Nc2ncnc3c(C(N)=O)cccc23)cc1F [compound 62, 4-(((3S,4R)-4-(3-fluoro-4-methoxyphenyl)pyrrolidin-3-yl)amino)quinazoline-8-carboxamide]
810	COc1ccc([C@H]2CNC[C@@H]2Nc2ncnc3c(C(N)=O)cccc23)cc1F [compound 63, 4-(((3R,4S)-4-(3-fluoro-4-methoxyphenyl)pyrrolidin-3-yl)amino)quinazoline-8-carboxamide]
340	NC(=O)c1cccc2c(N[C@H]3CNC[C@@H]3c3ccccc3Cl)ncnc12 [compound 65, 4-(((3R,4S)-4-(2-chlorophenyl)pyrrolidin-3-yl)amino)quinazoline-8-carboxamide]
1.4	NC(=O)c1cccc2c(N[C@@H]3CNC[C@H]3c3ccccc3Cl)ncnc12 [compound 66, 4-(((3S,4R)-4-(2-chlorophenyl)pyrrolidin-3-yl)amino)quinazoline-8-carboxamide]
1.54	NC(=O)c1cccc2c(N[C@@H]3CNC[C@H]3c3cccc(F)c3)ncnc12 [compound 67, 4-(((3S,4R)-4-(3-fluorophenyl)pyrrolidin-3-yl)amino)quinazoline-8-carboxamide]
48	NC(=O)c1cccc2c(N[C@H]3CNC[C@@H]3c3cccc(F)c3)ncnc12 [compound 68, 4-(((3R,4S)-4-(3-fluorophenyl)pyrrolidin-3-yl)amino)quinazoline-8-carboxamide]
3.3	NC(=O)c1cccc2c(N[C@H]3CNC[C@@H]3c3ccc4ncccc4c3)ncnc12 [compound 70, 4-(((3R,4S)-4-(quinolin-6-yl)pyrrolidin-3-yl)amino)quinazoline-8-carboxamide]
62	NC(=O)c1cccc2c(N[C@@H]3CNC[C@H]3c3ccc4ncccc4c3)ncnc12 [compound 71, 4-(((3S,4R)-4-(quinolin-6-yl)pyrrolidin-3-yl)amino)quinazoline-8-carboxamide]
360	COc1cccc([C@H]2CNC[C@@H]2Nc2ncnc3c(C(N)=O)cccc23)c1 [compound 72, 4-(((3R,4S)-4-(3-methoxyphenyl)pyrrolidin-3-yl)amino)quinazoline-8-carboxamide]
